The text below walks through data of patent US20260193293A1, “PEPTIDES CAPABLE OF INHIBITING PROTEIN-PROTEIN INTERACTIONS AT GABAB1A SUBUNIT AND USES THEREOF” (UNIVERSITY OF COPENHAGEN, priority 2022, published 2026).

SMILES strings stand for the structures. Where two headings read alike, the source gives them in different places. Non-standard residues stand in square brackets, D forms with d. Residues, ends and D or L forms follow the SMILES beside them. 2Nal = N[C@@H](Cc1ccc2ccccc2c1)C(=O)O; NMeF = CN[C@@H](Cc1ccccc1)C(=O)O; NMeA = CN[C@@H](C)C(=O)O; Sar = CNCC(=O)O

The target in the assay is Sushi domains (SD1/2) protein. The assay is described as follows: Fluorescence polarization (FP) competition assay with AJAP-1probe, calculated Ki. It is filed as binding. The protocol: Fluorescence polarization (FP). FP assay was employed to determine the binding affinity of peptides in flat bottom black 384-well plates (Corning Life Science) using a Safire2 plate reader (Tecan). All experiments were conducted in 1×PBS (pH 7.4) containing 1% bovine serum albumin (BSA) at rt. The fluorescence polarization values were measured using excitation/emission wavelengths of 530/580 nm. The instrumental Z-factor was adjusted to obtain the maximum fluorescence intensity and the G-factor was calibrated to give an initial millipolarization value of 20 mP. All FP assays including saturation or competition experiments were performed using 25 nM of TAMRA labeled peptides as probes. For saturation assay, the millipolarization values were measured after mixing of probes with 12 serial 1 to 1 diluted concentrations of Sushi domains (SD1/2) protein. All experiments were performed in triplicate and the data were plotted to the one-site binding model using GraphPad Prism 9 to calculate the Kd of probes. […] The experiments were performed at least in triplicate and the data were fitted to the sigmoidal dose response curve using GraphPad Prism 9 to obtain the IC50 of peptides. The Ki values were calculated according to Nikolovska-Coleska et al^310.

[1] abbreviates: Table 13, peptides for affinity maturation, read-out: Ki (nM) mean ± SEM.
[2] abbreviates: Table 4, truncation and elongation scans of APP epitope, read-out: Ki (nM) mean ± SEM.
[3] abbreviates: purified peptides, read-out: Ki.

As to `CC[C@H](C)[C@H](NC(=O)[C@H](Cc1ccccc1)NC(=O)[C@H](CCC(=O)O)NC(=O)[C@@H](NC(=O)[C@H](CCC(=O)O)NC(C)=O)[C@@H](C)O)C(=O)N[C@@H](C)C(=O)N[C@@H](Cc1c[nH]c2ccccc12)C(=O)N[C@@H](Cc1ccc(O)cc1)C(=O)NCC(=O)N1CCC[C@H]1C(=O)N[C@H](C(=O)NCC(=O)N[C@@H](CC(=O)O)C(=O)N[C@@H](CCC(=O)O)C(=O)N[C@@H](CC(=O)O)C(N)=O)[C@@H](C)O` [ETEFIAWYGPTGDED] (Ac-ETEFIAWYGPTGDED-NH2), under setting [1], the Ki is 195 ± 7 nM.
As for `CC(=O)N[C@@H](CCC(=O)O)C(=O)N[C@@H](CCC(=O)O)C(=O)N[C@@H](CC(=O)O)C(=O)N[C@@H](CC(=O)O)C(=O)N[C@@H](CO)C(=O)N[C@@H](CC(=O)O)C(=O)N[C@H](C(=O)N[C@@H](Cc1c[nH]c2ccccc12)C(=O)N[C@@H](Cc1c[nH]c2ccccc12)C(=O)NCC(=O)NCC(=O)N[C@@H](C)C(=O)N[C@@H](CC(=O)O)C(=O)N[C@H](C(=O)N[C@@H](CC(=O)O)C(N)=O)[C@@H](C)O)C(C)C` (Ac-EEDDSDVWWGGADTD-NH2), under setting [2], the Ki was 341 ± 10 nM.
Same read-out and setting: the figure for `CC(=O)N[C@@H](CCC(=O)O)C(=O)N[C@@H](CCC(=O)O)C(=O)N[C@@H](CC(=O)O)C(=O)N[C@@H](CC(=O)O)C(=O)N[C@@H](CO)C(=O)N[C@@H](CC(=O)O)C(=O)N[C@H](C(=O)N[C@@H](Cc1c[nH]c2ccccc12)C(=O)N[C@@H](Cc1c[nH]c2ccccc12)C(N)=O)C(C)C` (Ac-EEDDSDVWW-NH2) is 1786 ± 16 nM.
`CC[C@H](C)[C@H](NC(=O)[C@H](C)NC(=O)[C@H](Cc1c[nH]c2ccccc12)NC(=O)[C@@H]1CCCN1C(C)=O)C(=O)N[C@H](C(=O)N[C@@H](Cc1c[nH]c2ccccc12)C(=O)NCC(=O)N1CCC[C@H]1C(=O)N[C@H](C(=O)N[C@H](C(=O)N[C@@H](CO)C(=O)N[C@@H](CCCNC(=N)N)C(=O)N[C@@H](CCC(=O)O)C(=O)N[C@@H](CC(=O)O)C(=O)NCC(N)=O)C(C)C)[C@@H](C)O)C(C)C` [Peptide 14] (Ac-PWAIVWGPTVSREDG-NH2): the Ki under setting [3] was 465 nM.
As for `CC(=O)N[C@@H](CCC(=O)O)C(=O)N[C@@H](CC(=O)O)C(=O)N[C@@H](CC(=O)O)C(=O)N[C@@H](CO)C(=O)N[C@@H](CC(=O)O)C(=O)N[C@H](C(=O)N[C@@H](Cc1c[nH]c2ccccc12)C(=O)N[C@@H](Cc1c[nH]c2ccccc12)C(=O)N[C@@H](Cc1ccc2ccccc2c1)C(=O)NCC(=O)N[C@@H](C)C(=O)N[C@@H](CC(=O)O)C(=O)N[C@H](C(=O)N[C@@H](CC(=O)O)C(N)=O)[C@@H](C)O)C(C)C` (Ac-EDDSDVWW[2Nal]GADTD-NH2), the Ki (Table 16, ncAAs incorporated peptides, read-out: Ki (nM) mean ± SEM) was 75 ± 1 nM.
As for `CC[C@H](C)[C@H](NC(=O)[C@H](Cc1ccccc1)NC(=O)[C@H](CCC(=O)O)NC(=O)[C@@H](NC(=O)[C@H](CCC(=O)O)NC(C)=O)[C@@H](C)O)C(=O)N(C)[C@@H](C)C(=O)N[C@@H](Cc1c[nH]c2ccccc12)C(=O)NCC(=O)N1CCC[C@H]1C(=O)N[C@H](C(=O)NCC(=O)N[C@@H](CC(=O)O)C(=O)N[C@@H](CCC(=O)O)C(=O)N[C@@H](CC(=O)O)C(N)=O)[C@@H](C)O` [ETEFI(N-Me-A)WGPTGDED] (Ac-ETEFI[NMeA]WGPTGDED-NH2), under “Table 8, in μM, read-out: Ki (nM) mean ± SEM”, the Ki was > 6250 nM.
On to `CC[C@H](C)[C@H](NC(=O)[C@H](Cc1c[nH]c2ccccc12)NC(=O)[C@H](CO)NC(=O)[C@H](CC(=O)O)NC(=O)[C@H](CC(=O)O)NC(=O)[C@H](CCC(=O)O)NC(C)=O)C(=O)N[C@@H](Cc1c[nH]c2ccccc12)C(=O)N[C@@H](Cc1c[nH]c2ccccc12)C(=O)N[C@@H](Cc1ccc(O)cc1)C(=O)NCC(=O)N[C@@H](C)C(=O)N[C@@H](CC(=O)O)C(=O)N[C@H](C(=O)N[C@@H](CC(=O)O)C(N)=O)[C@@H](C)O` [Peptide 28] (Ac-EDDSWIWWYGADTD-NH2), for which the Ki reads like this: (Table 1, affinity maturation, mean ± SEM, n ≥ 3, read-out: Ki) 18 ± 1 nM; under setting [1], 18 ± 1 nM.
As for `CC[C@H](C)[C@H](NC(=O)[C@H](CCCCN)NC(=O)[C@H](CCC(=O)O)NC(=O)[C@@H](NC(=O)[C@H](CCC(=O)O)NC(C)=O)[C@@H](C)O)C(=O)N[C@@H](C)C(=O)N[C@@H](Cc1c[nH]c2ccccc12)C(=O)NCC(=O)N1CCC[C@H]1C(=O)N[C@H](C(=O)NCC(=O)N[C@@H](CC(=O)O)C(=O)N[C@@H](CCC(=O)O)C(=O)N[C@@H](CC(=O)O)C(N)=O)[C@@H](C)O` [ETEKIAWGPTGDED] (Ac-ETEKIAWGPTGDED-NH2), the Ki (Table 11, cells printed in μM, read-out: Ki (nM) mean ± SEM) was > 6250 nM.
Turning to `CC[C@H](C)[C@H](NC(=O)[C@H](C)NC(=O)[C@H](Cc1c[nH]c2ccccc12)NC(=O)[C@@H]1CCCN1C(C)=O)C(=O)N[C@H](C(=O)N[C@@H](Cc1c[nH]c2ccccc12)C(=O)N(C)CC(=O)N1CCC[C@H]1C(=O)N[C@H](C(=O)N[C@H](C(=O)N[C@@H](CO)C(=O)N[C@@H](CCCNC(=N)N)C(=O)N[C@@H](CCC(=O)O)C(=O)N[C@@H](CC(=O)O)C(N)=O)C(C)C)[C@@H](C)O)C(C)C` [PWAIVW(N-Me-G)PTVSRED] (Ac-PWAIVW[Sar]PTVSRED-NH2), the Ki (Table 9, Ala-, D-amino acids and N-methylation scans of PIANPWT, read-out: Ki (nM) mean ± SEM) was 58300 ± 4410 nM.
In the case of `CC[C@H](C)[C@H](NC(=O)[C@H](Cc1c[nH]c2ccccc12)NC(=O)[C@H](CC(=O)O)NC(=O)[C@H](CC(=O)O)NC(=O)[C@H](CC(=O)O)NC(=O)[C@H](CCC(=O)O)NC(=O)[C@H](CCCNC(=N)N)NC(=O)[C@H](CCCNC(=N)N)NC(=O)[C@H](CCCNC(=N)N)NC(=O)[C@H](CCCNC(=N)N)NC(=O)[C@H](CCCNC(=N)N)NC(=O)[C@H](CCCNC(=N)N)NC(=O)[C@H](CCCNC(=N)N)NC(C)=O)C(=O)N[C@@H](CC(=O)O)C(=O)N[C@@H](Cc1c[nH]c2ccccc12)C(=O)NCC(=O)N1CCC[C@H]1C(=O)N[C@H](C(=O)N[C@@H](CO)C(=O)N[C@@H](CC(=O)O)C(=O)N[C@@H](CC(=O)O)C(=O)N[C@@H](CC(=O)O)C(N)=O)[C@@H](C)O` (Ac-RRRRRRREDDDWIDWGPTSDDD-NH2), the Ki (Table 14, CPPs tagged peptides, read-out: Ki (nM) mean ± SEM) is 65 ± 2 nM.
`CC(=O)N[C@@H](CCC(=O)O)C(=O)N[C@@H](CC(=O)O)C(=O)N[C@@H](CC(=O)O)C(=O)N[C@@H](CO)C(=O)N[C@@H](CC(=O)O)C(=O)N[C@H](C(=O)N[C@@H](Cc1c[nH]c2ccccc12)C(=O)N[C@@H](Cc1c[nH]c2ccccc12)C(=O)NCC(=O)NCC(=O)N[C@@H](C)C(=O)N[C@@H](CC(=O)O)C(=O)N[C@H](C(=O)N[C@@H](CC(=O)O)C(=O)N[C@@H](Cc1ccc(O)cc1)C(N)=O)[C@@H](C)O)C(C)C` [Peptide 13] (Ac-EDDSDVWWGGADTDY-NH2): the Ki under setting [3] is 581 nM.
On to `CC[C@H](C)[C@H](NC(=O)[C@H](Cc1ccccc1)N(C)C(=O)[C@H](CCC(=O)O)NC(=O)[C@@H](NC(=O)[C@H](CCC(=O)O)NC(C)=O)[C@@H](C)O)C(=O)N[C@@H](C)C(=O)N[C@@H](Cc1c[nH]c2ccccc12)C(=O)NCC(=O)N1CCC[C@H]1C(=O)N[C@H](C(=O)NCC(=O)N[C@@H](CC(=O)O)C(=O)N[C@@H](CCC(=O)O)C(=O)N[C@@H](CC(=O)O)C(N)=O)[C@@H](C)O` [ETE(N-Me-F)IAWGPTGDED] (Ac-ETE[NMeF]IAWGPTGDED-NH2), for which the Ki (Table 8, Ala-, D-amino acids and N-methylation scans of AJAP-1WT, read-out: Ki (nM) mean ± SEM) is 252 ± 5 nM.
On to `CC[C@H](C)[C@H](NC(=O)[C@H](C)NC(=O)[C@H](Cc1c[nH]c2ccccc12)NC(=O)[C@@H]1CCCN1C(=O)[C@H](Cc1ccc(O)cc1)NC(=O)[C@H](CCC(N)=O)NC(=O)[C@H](CO)NC(=O)[C@H](CO)NC(C)=O)C(=O)N[C@H](C(=O)N[C@@H](Cc1c[nH]c2ccccc12)C(=O)NCC(=O)N1CCC[C@H]1C(=O)N[C@H](C(=O)N[C@H](C(=O)N[C@@H](CO)C(=O)N[C@@H](CCCNC(=N)N)C(=O)N[C@@H](CCC(=O)O)C(=O)N[C@@H](CC(=O)O)C(=O)NCC(N)=O)C(C)C)[C@@H](C)O)C(C)C` (Ac-SSQYPWAIVWGPTVSREDG-NH2), for which the Ki (Table 6, elongation and truncation scan of PIANP binding epitope, read-out: Ki (nM) mean ± SEM) was 29900 ± 2000 nM.
